Source: ChEMBL document CHEMBL3885881, “DrugMatrix”

Species on record: Rattus norvegicus
Experiment: DrugMatrix - Regimen: Daily Repeat
Format: toxicity, organism-based, Sprague-Dawley
Parameters: regimen Daily Repeat, gender Male, age 6-8 weeks
Details: in vivo, iv, 31 mg/kg, dose level Low, vehicle 100 % SALINE; for ABSOLUTE BASOPHIL / ABSOLUTE EOSINOPHIL / ABSOLUTE LYMPHOCYTE / ABSOLUTE MONOCYTE / ABSOLUTE SEGMENTED NEUTROPHIL / BASOPHIL / EOSINOPHIL / ERYTHROCYTE COUNT / HEMATOCRIT / HEMOGLOBIN / LEUKOCYTE COUNT / LYMPHOCYTE / MEAN CORPUSCULAR HEMOGLOBIN / MEAN CORPUSCULAR HEMOGLOBIN CONCENTRATION / MEAN CORPUSCULAR VOLUME / MONOCYTE / NEUTROPHIL / NUCLEATED RED BLOOD CELLS / PLATELET COUNT: tissue Blood; for ALANINE AMINOTRANSFERASE / ALBUMIN / ALKALINE PHOSPHATASE / ASPARTATE AMINOTRANSFERASE / BLOOD UREA NITROGEN / CARBON DIOXIDE / CHLORIDE / CHOLESTEROL / CREATINE PHOSPHOKINASE / CREATININE / GLUCOSE / LACTATE DEHYDROGENASE / LIPASE / PHOSPHORUS / POTASSIUM / SODIUM / TOTAL BILIRUBIN / TOTAL PROTEIN / URIC ACID: tissue Plasma

Cc1cn[nH]c1 [FOMEPIZOLE]
ABSOLUTE BASOPHIL (72 h, time 3 day): 0 CELLS/uL | ABSOLUTE EOSINOPHIL (72 h, time 3 day): 41 CELLS/uL | ABSOLUTE LYMPHOCYTE (72 h, time 3 day): 12783.33 CELLS/uL | ABSOLUTE MONOCYTE (72 h, time 3 day): 137 CELLS/uL | ABSOLUTE SEGMENTED NEUTROPHIL (72 h, time 3 day): 738.67 CELLS/uL | BASOPHIL (72 h, time 3 day): 0% | EOSINOPHIL (72 h, time 3 day): 0.33% | ERYTHROCYTE COUNT (72 h, time 3 day): 5.82 x10E6/uL | HEMATOCRIT (72 h, time 3 day): 35.33% | HEMOGLOBIN (72 h, time 3 day): 13.87 G/DL | LEUKOCYTE COUNT (72 h, time 3 day): 13.7 x10E3/uL | LYMPHOCYTE (72 h, time 3 day): 93.33% | MEAN CORPUSCULAR HEMOGLOBIN (72 h, time 3 day): 23.83 pg | MEAN CORPUSCULAR HEMOGLOBIN CONCENTRATION (72 h, time 3 day): 39.27 G/DL | MEAN CORPUSCULAR VOLUME (72 h, time 3 day): 60.67 fL | MONOCYTE (72 h, time 3 day): 1% | NEUTROPHIL (72 h, time 3 day): 5.33% | NUCLEATED RED BLOOD CELLS (72 h, time 3 day): 0 /100WBC | PLATELET COUNT (72 h, time 3 day): 1326.67 x10E3/uL | ALANINE AMINOTRANSFERASE (72 h, time 3 day): 46.33 u/L | ALBUMIN (72 h, time 3 day): 4.27 G/DL | ALKALINE PHOSPHATASE (72 h, time 3 day): 429.67 u/L | ASPARTATE AMINOTRANSFERASE (72 h, time 3 day): 79 u/L | BLOOD UREA NITROGEN (72 h, time 3 day): 14.67 mg/dL | CARBON DIOXIDE (72 h, time 3 day): 23.67 mmol/L | CHLORIDE (72 h, time 3 day): 103.67 MEQ/L | CHOLESTEROL (72 h, time 3 day): 67.67 mg/dL | CREATINE PHOSPHOKINASE (72 h, time 3 day): 240.33 u/L | CREATININE (72 h, time 3 day): 0.15 mg/dL | GLUCOSE (72 h, time 3 day): 166.33 mg/dL | LACTATE DEHYDROGENASE (72 h, time 3 day): 139.67 u/L | LIPASE (72 h, time 3 day): 9.33 u/L | PHOSPHORUS (72 h, time 3 day): 13.53 mg/dL | POTASSIUM (72 h, time 3 day): 6.4 MEQ/L | SODIUM (72 h, time 3 day): 147.03 MEQ/L | TOTAL BILIRUBIN (72 h, time 3 day): 0.2 mg/dL | TOTAL PROTEIN (72 h, time 3 day): 5.77 G/DL | URIC ACID (72 h, time 3 day): 1.67 mg/dL | ABSOLUTE BASOPHIL (120 h, time 5 day): 0 CELLS/uL | ABSOLUTE EOSINOPHIL (120 h, time 5 day): 0 CELLS/uL | ABSOLUTE LYMPHOCYTE (120 h, time 5 day): 17243.67 CELLS/uL | ABSOLUTE MONOCYTE (120 h, time 5 day): 226 CELLS/uL | ABSOLUTE SEGMENTED NEUTROPHIL (120 h, time 5 day): 1697 CELLS/uL | BASOPHIL (120 h, time 5 day): 0% | EOSINOPHIL (120 h, time 5 day): 0% | ERYTHROCYTE COUNT (120 h, time 5 day): 5.34 x10E6/uL | HEMATOCRIT (120 h, time 5 day): 34.37% | HEMOGLOBIN (120 h, time 5 day): 13.8 G/DL | LEUKOCYTE COUNT (120 h, time 5 day): 19.17 x10E3/uL | LYMPHOCYTE (120 h, time 5 day): 89.67% | MEAN CORPUSCULAR HEMOGLOBIN (120 h, time 5 day): 25.9 pg | MEAN CORPUSCULAR HEMOGLOBIN CONCENTRATION (120 h, time 5 day): 40.17 G/DL | MEAN CORPUSCULAR VOLUME (120 h, time 5 day): 64.4 fL | MONOCYTE (120 h, time 5 day): 1.33% | NEUTROPHIL (120 h, time 5 day): 9% | NUCLEATED RED BLOOD CELLS (120 h, time 5 day): 0 /100WBC | PLATELET COUNT (120 h, time 5 day): 1415 x10E3/uL | ALANINE AMINOTRANSFERASE (120 h, time 5 day): 63.33 u/L | ALBUMIN (120 h, time 5 day): 4.27 G/DL | ALKALINE PHOSPHATASE (120 h, time 5 day): 350 u/L | ASPARTATE AMINOTRANSFERASE (120 h, time 5 day): 91 u/L | BLOOD UREA NITROGEN (120 h, time 5 day): 15.33 mg/dL | CARBON DIOXIDE (120 h, time 5 day): 21.67 mmol/L | CHLORIDE (120 h, time 5 day): 103.33 MEQ/L | CHOLESTEROL (120 h, time 5 day): 77 mg/dL | CREATINE PHOSPHOKINASE (120 h, time 5 day): 195 u/L | CREATININE (120 h, time 5 day): 0.2 mg/dL | GLUCOSE (120 h, time 5 day): 155.67 mg/dL | LACTATE DEHYDROGENASE (120 h, time 5 day): 131 u/L | LIPASE (120 h, time 5 day): 10.67 u/L | PHOSPHORUS (120 h, time 5 day): 13.77 mg/dL | POTASSIUM (120 h, time 5 day): 6.85 MEQ/L | SODIUM (120 h, time 5 day): 145.9 MEQ/L | TOTAL BILIRUBIN (120 h, time 5 day): 0.17 mg/dL | TOTAL PROTEIN (120 h, time 5 day): 5.93 G/DL | URIC ACID (120 h, time 5 day): 1.7 mg/dL
